Key:
[1] = Solubility of Rebaudioside D (crystalline vs amorphous) in water; type: physicochemical; details: for water solubility: room temperature, g per 100 g solvent
Description: Hereinafter, unless specified otherwise the solubility of material is determined in RO (reverse osmosis) water at room temperature. […] The solution was maintained at 50° C. and dried using a YC-015 laboratory spray drier (Shanghai Pilotech Instrument & Equipment Co. Ltd., China) operating at 175° C. inlet and 100° C. outlet temperatures.

[2] = cited from earlier work
[3] = room temperature, water; cited from earlier work

Compound	water solubility [1] [%]	Rate of dissolution in H2O at 25° C. (in words) [2]	Rate of dissolution in H2O at 25° C., amount dissolved in 5 minutes [2]	further results
C=C1C[C@@]23CC[C@H]4[C@@](C)(CCC[C@@]4(C)C(=O)O[C@@H]4O[C@H](CO)[C@@H](O)[C@H](O)[C@H]4O[C@@H]4O[C@H](CO)[C@@H](O)[C@H](O)[C@H]4O)[C@@H]2CC[C@]1(O[C@@H]1O[C@H](CO)[C@@H](O)[C@H](O[C@@H]2O[C@H](CO)[C@@H](O)[C@H](O)[C@H]2O)[C@H]1O[C@@H]1O[C@H](CO)[C@@H](O)[C@H](O)[C@H]1O)C3 [amorphous Reb D, Rebaudioside D]	0.2	–	–	–
C=C1C[C@@]23CC[C@H]4[C@@](C)(CCC[C@@]4(C)C(=O)O[C@@H]4O[C@H](CO)[C@@H](O)[C@H](O)[C@H]4O)[C@@H]2CC[C@]1(O[C@@H]1O[C@H](CO)[C@@H](O)[C@H](O[C@@H]2O[C@H](CO)[C@@H](O)[C@H](O)[C@H]2O)[C@H]1O[C@@H]1O[C@H](CO)[C@@H](O)[C@H](O)[C@H]1O)C3 [Form 1, Rebaudioside A]	–	Very low	–	Rate of dissolution in H2O at 25° C., amount dissolved in 60 minutes ([2]; in 60 minutes): (<0.2% in 60
C=C1C[C@@]23CC[C@H]4[C@@](C)(CCC[C@@]4(C)C(=O)O[C@@H]4O[C@H](CO)[C@@H](O)[C@H](O)[C@H]4O)[C@@H]2CC[C@]1(O[C@@H]1O[C@H](CO)[C@@H](O)[C@H](O[C@@H]2O[C@H](CO)[C@@H](O)[C@H](O)[C@H]2O)[C@H]1O[C@@H]1O[C@H](CO)[C@@H](O)[C@H](O)[C@H]1O)C3 [Form 4, Rebaudioside A]	–	High	(>35% in 5	–
C=C1C[C@@]23CC[C@H]4[C@@](C)(CCC[C@@]4(C)C(=O)O[C@@H]4O[C@H](CO)[C@@H](O)[C@H](O)[C@H]4O)[C@@H]2CC[C@]1(O[C@@H]1O[C@H](CO)[C@@H](O)[C@H](O[C@@H]2O[C@H](CO)[C@@H](O)[C@H](O)[C@H]2O)[C@H]1O[C@@H]1O[C@H](CO)[C@@H](O)[C@H](O)[C@H]1O)C3 [Form 3, Rebaudioside A]	–	High	(>30% in 5	–
C=C1C[C@@]23CC[C@H]4[C@@](C)(CCC[C@@]4(C)C(=O)O[C@@H]4O[C@H](CO)[C@@H](O)[C@H](O)[C@H]4O[C@@H]4O[C@H](CO)[C@@H](O)[C@H](O)[C@H]4O)[C@@H]2CC[C@]1(O[C@@H]1O[C@H](CO)[C@@H](O)[C@H](O[C@@H]2O[C@H](CO)[C@@H](O)[C@H](O)[C@H]2O)[C@H]1O[C@@H]1O[C@H](CO)[C@@H](O)[C@H](O)[C@H]1O)C3 [crystalline Rebaudioside D, Rebaudioside D]	0.05	–	–	Solubility, % (in water) 20° C. ([1]; water, 20° C.): 0.05%; Solubility, % (in water) 50° C.* ([1]; water, 50° C., solution crystallized after cooling to room temperature (20° C.)): 0.2%; Solubility, % (in water) 100° C.* ([1]; water, 100° C., solution crystallized after cooling to room temperature (20° C.)): 0.5%
C=C1C[C@@]23CC[C@H]4[C@@](C)(CCC[C@@]4(C)C(=O)O[C@@H]4O[C@H](CO)[C@@H](O)[C@H](O)[C@H]4O)[C@@H]2CC[C@]1(O[C@@H]1O[C@H](CO)[C@@H](O)[C@H](O[C@@H]2O[C@H](CO)[C@@H](O)[C@H](O)[C@H]2O)[C@H]1O[C@@H]1O[C@H](CO)[C@@H](O)[C@H](O)[C@H]1O)C3 [Rebaudioside A]	–	–	–	thermodynamic equilibrium solubility [3]: 0.8%
C=C1C[C@@]23CC[C@H]4[C@@](C)(CCC[C@@]4(C)C(=O)O[C@@H]4O[C@H](CO)[C@@H](O)[C@H](O)[C@H]4O[C@@H]4O[C@H](CO)[C@@H](O)[C@H](O)[C@H]4O)[C@@H]2CC[C@]1(O[C@@H]1O[C@H](CO)[C@@H](O)[C@H](O[C@@H]2O[C@H](CO)[C@@H](O)[C@H](O)[C@H]2O)[C@H]1O[C@@H]1O[C@H](CO)[C@@H](O)[C@H](O)[C@H]1O)C3 [Rebaudioside D]	0.05	–	–	water solubility when heat is applied ([1]; heated, upon cooling to room temperature crystallizes back out): up to 0.5%
C=C1C[C@@]23CC[C@H]4[C@@](C)(CCC[C@@]4(C)C(=O)O[C@@H]4O[C@H](CO)[C@@H](O)[C@H](O)[C@H]4O)[C@@H]2CC[C@]1(O[C@@H]1O[C@H](CO)[C@@H](O)[C@H](O[C@@H]2O[C@H](CO)[C@@H](O)[C@H](O)[C@H]2O)[C@H]1O[C@@H]1O[C@H](CO)[C@@H](O)[C@H](O)[C@H]1O)C3 [Form 2, Rebaudioside A]	–	Intermediate	(<30% in 5	–

From patent US11950611B2, “Highly soluble Rebaudioside D” (PURECIRCLE SDN BHD, priority 2013, dated 2024)
